Reference: the supplement of paper PMC13380429
± gives the standard deviation of the averaged measurements.

What was measured:
Conditions in all cases: 72 h
Caco-2 [1] = assay: cell viability relative to DMSO; higher = less toxic
Calu-3 [2] = assay: as above
HepG2 [3] = assay: as above
U2OS [4] = assay: as above
Vero E6 [5] = assay: as above
Caco-2 [6] = assay: relative viability EC50 (midpoint between 100% and the lowest measured viability); higher = less toxic
Calu-3 [7] = assay: as above
HepG2 [8] = assay: as above
U2OS [9] = assay: as above
Vero E6 [10] = assay: as above
Caco-2 [11] = assay: drug sensitivity score (DSS) for viability; higher = more toxic; extreme values may be limits of the assay
Calu-3 [12] = assay: as above
HepG2 [13] = assay: as above
U2OS [14] = assay: as above
Vero E6 [15] = assay: as above

| SMILES | cell viability (Caco-2 [1]; 1 nM) | cell viability (Caco-2 [1]; 10 nM) | cell viability (Caco-2 [1]; 100 nM) | cell viability (Caco-2 [1]; 1000 nM) | cell viability (Caco-2 [1]; 10000 nM) | cell viability (Calu-3 [2]; 1 nM) | cell viability (Calu-3 [2]; 10 nM) | cell viability (Calu-3 [2]; 100 nM) | cell viability (Calu-3 [2]; 1000 nM) | cell viability (Calu-3 [2]; 10000 nM) | cell viability (HepG2 [3]; 1 nM) | cell viability (HepG2 [3]; 10 nM) | cell viability (HepG2 [3]; 100 nM) | cell viability (HepG2 [3]; 1000 nM) | cell viability (HepG2 [3]; 10000 nM) | cell viability (U2OS [4]; 1 nM) | cell viability (U2OS [4]; 10 nM) | cell viability (U2OS [4]; 100 nM) | cell viability (U2OS [4]; 1000 nM) | cell viability (U2OS [4]; 10000 nM) | cell viability (Vero E6 [5]; 1 nM) | cell viability (Vero E6 [5]; 10 nM) | cell viability (Vero E6 [5]; 100 nM) | cell viability (Vero E6 [5]; 1000 nM) | cell viability (Vero E6 [5]; 10000 nM) | relative viability EC50 (Caco-2 [6]) | relative viability EC50 (Calu-3 [7]) | relative viability EC50 (HepG2 [8]) | relative viability EC50 (U2OS [9]) | relative viability EC50 (Vero E6 [10]) | drug sensitivity score (Caco-2 [11]) | drug sensitivity score (Calu-3 [12]) | drug sensitivity score (HepG2 [13]) | drug sensitivity score (U2OS [14]) | drug sensitivity score (Vero E6 [15]) |
| --- | --- | --- | --- | --- | --- | --- | --- | --- | --- | --- | --- | --- | --- | --- | --- | --- | --- | --- | --- | --- | --- | --- | --- | --- | --- | --- | --- | --- | --- | --- | --- | --- | --- | --- | --- |
| O=C(O)Cc1cccc(OCCCN(Cc2cccc(C(F)(F)F)c2Cl)CC(c2ccccc2)c2ccccc2)c1 [GW-3965] | 92.8% | 107% | 97.8% | 98.1% | 77.7% | 93.6% | 101% | 108% | 114% | 98.8% | 90.9% | 99.3% | 116% | 97.5% | 92.5% | 100% | 99.2% | 98.2% | 101% | 95.6% | 112% | 98.8% | 100% | 101% | 104% | > 10 µM | > 10 µM | > 10 µM | > 10 µM | > 10 µM | 1 | 0 | 0 | 0 | 0 |
| Cc1cccc(COc2cccc(/C=C3\C(=O)NN(c4ccccc4)C3=O)c2)c1 [Y16] | 100% | 97.9% | 101% | 93.6% | 100% | 104% | 104% | 97.3% | 102% | 102% | 92.8% | 93.5% | 98.3% | 103% | 87.6% | 99.5% | 98.4% | 97.9% | 93.6% | 97.8% | 98.5% | 96.7% | 98.8% | 96.8% | 87.8% | > 10 µM | > 10 µM | > 10 µM | > 10 µM | > 10 µM | 0 | 0 | 0 | 0 | 0.2 |
| CN(C)CCc1c[nH]c2ccc(Cn3cncn3)cc12 [rizatriptan] | 91.9% | 102% | 101% | 97.2% | 87.7% | 96.5% | 107% | 99.8% | 97.3% | 99.1% | 99% | 93.5% | 102% | 92.8% | 104% | 99% | 106% | 96.5% | 98.6% | 96.5% | 101% | 94.8% | 98.7% | 99.3% | 98.8% | > 10 µM | > 10 µM | > 10 µM | > 10 µM | > 10 µM | 0.2 | 0 | 0 | 0 | 0 |
| COc1cc2c(cc1OC)CC(=O)N(CCCN(C)C[C@H]1Cc3cc(OC)c(OC)cc31)CC2 [ivabradine] | 98.3% | 85.6% | 102% | 100% | 99.8% | 111% | 85.1% | 98.4% | 101% | 105% | 109% | 113% | 98.2% | 102% | 89.3% | 106% | 102% | 99.6% | 99.1% | 101% | 101% | 99.7% | 100% | 107% | 99.4% | > 10 µM | > 10 µM | > 10 µM | > 10 µM | > 10 µM | 0 | 0 | 0 | 0 | 0 |
| COc1cc2c(cc1O)C(CCc1ccc(Cl)cc1)N(C)CC2 (stereo not given) [Ro-04-5595] | 102% | 97.2% | 94.4% | 100% | 102% | 93% | 94.6% | 102% | 96.6% | 92.1% | 103% | 101% | 102% | 99% | 80.1% | 100% | 96.2% | 95.8% | 95.1% | 97.9% | 106% | 108% | 101% | 102% | 90.1% | > 10 µM | > 10 µM | > 10 µM | > 10 µM | > 10 µM | 0 | 0 | 0.7 | 0 | 0 |
| COc1ccc2cccc(CCNC(C)=O)c2c1 [agomelatine] | 102% | 104% | 104% | 96.8% | 98% | 105% | 106% | 103% | 88.4% | 106% | 97.7% | 104% | 97.8% | 101% | 103% | 105% | 99% | 105% | 98.8% | 99.8% | 98% | 103% | 92.5% | 106% | 96.5% | > 10 µM | > 10 µM | > 10 µM | > 10 µM | > 10 µM | 0 | 0 | 0 | 0 | 0 |
| [N-]=[N+]=N[C@]1(CO)O[C@@H](n2ccc(N)nc2=O)[C@H](O)[C@@H]1O [R-1479] | 98.2 ± 3.6% | 96.2 ± 4% | 90.7% | 98.6 ± 11% | 96.7 ± 9.1% | 91.35 ± 0.78% | 99.5 ± 4.4% | 102.8 ± 0.78% | 100 ± 2.3% | 93 ± 1.5% | 112 ± 7.2% | 94.25 ± 0.92% | 98.3 ± 2.8% | 94.7 ± 1.7% | 96.2 ± 3.6% | 98 ± 0.85% | 102 ± 2.8% | 102 ± 1.3% | 105 ± 2.5% | 100 ± 0.14% | 99 ± 3.8% | 96.4 ± 1.7% | 97.8 ± 1.7% | 94.5 ± 2.8% | 103 ± 6.7% | > 10 µM | > 10 µM | > 10 µM | > 10 µM | > 10 µM | 0 | 0 | 0 | 0 | 0 |
| Clc1ccc(Cn2c(CN3CCCC3)nc3ccccc32)cc1 [clemizole] | 95.5% | 94.7% | 97.6% | 97% | 84.7% | 95.7% | 98.4% | 101% | 101% | 107% | 112% | 111% | 94.3% | 106% | 89.1% | 101% | 97.7% | 98.6% | 105% | 97.8% | 102% | 104% | 103% | 99.2% | 92.3% | > 10 µM | > 10 µM | > 10 µM | > 10 µM | > 10 µM | 0.5 | 0 | 0 | 0 | 0 |
| CC(=O)[C@H]1CC[C@H]2[C@@H]3C[C@H](C)C4=CC(=O)CC[C@]4(C)[C@H]3[C@@H](O)C[C@]12C [medrysone] | 90.4% | 97.5% | 98.2% | 101% | 102% | 91.5% | 98.5% | 101% | 91.3% | 93.4% | 102% | 98.4% | 108% | 101% | 112% | 97.6% | 97.4% | 99.8% | 101% | 99.6% | 98% | 95% | 97.9% | 95.6% | 100% | > 10 µM | > 10 µM | > 10 µM | > 10 µM | > 10 µM | 0 | 0 | 0 | 0 | 0 |
| Nc1[nH]cnc2ncnc1-2 [adenine] | 91.8% | 95.9% | 104% | 88.5% | 114% | 91.3% | 93.3% | 112% | 108% | 90.7% | 77.5% | 98.7% | 92.8% | 92.5% | 93.2% | 93.8% | 103% | 98.4% | 99.5% | 110% | 104% | 103% | 101% | 91.7% | 98.2% | > 10 µM | > 10 µM | > 10 µM | > 10 µM | > 10 µM | 0 | 0 | 0 | 0 | 0 |
| Cc1cccc(NC(=O)c2ccc(C(F)(F)F)cc2C(=O)O)n1 | 99.5% | 101% | 101% | 98% | 105% | 103% | 95% | 94.5% | 106% | 98.6% | 103% | 96.8% | 105% | 108% | 102% | 100% | 102% | 97% | 97% | 104% | 99.7% | 99.8% | 105% | 104% | 106% | > 10 µM | > 10 µM | > 10 µM | > 10 µM | > 10 µM | 0 | 0 | 0 | 0 | 0 |
| Cc1nccc2[nH]c(=O)ccc12 [medorinone] | 104% | 102% | 102% | 93.9% | 97.8% | 113% | 102% | 91% | 98.8% | 96.3% | 112% | 99.5% | 102% | 96.8% | 109% | 97.9% | 100% | 97.4% | 99.7% | 97.8% | 102% | 101% | 97% | 97.1% | 98.5% | > 10 µM | > 10 µM | > 10 µM | > 10 µM | > 10 µM | 0 | 0 | 0 | 0 | 0 |
| On1ncc(C2CCNCC2)c1-c1cccc(-c2ccccc2)c1 [PHP-501] | 100% | 97.3% | 93% | 102% | 94.6% | 106% | 102% | 91.1% | 97.1% | 107% | 108% | 99.6% | 105% | 97.4% | 100% | 95.5% | 102% | 98.1% | 109% | 106% | 97.7% | 92.1% | 92% | 89.9% | 111% | > 10 µM | > 10 µM | > 10 µM | > 10 µM | > 10 µM | 0 | 0 | 0 | 0 | 0 |
| O=C([O-])c1ccccn1.O=C([O-])c1ccccn1.O=C([O-])c1ccccn1.[Cr+3] [chromium-picolinate] | 105% | 92% | 104% | 95.5% | 103% | 111% | 102% | 113% | 103% | 97.6% | 93% | 95.3% | 103% | 98.7% | 90.1% | 104% | 97.7% | 98.6% | 98.9% | 102% | 102% | 103% | 105% | 99.2% | 101% | > 10 µM | > 10 µM | > 10 µM | > 10 µM | > 10 µM | 0 | 0 | 0 | 0 | 0 |
